Data on 17 compounds can be found in ChEMBL document CHEMBL1201862, “PubChem BioAssay data set” (2004).

Structures are written as SMILES. Active and inactive are the calls of the source. Where a SMILES comes first, the peptide text is derived from it. The star is where a group is joined. Boc = CC(C)(C)OC(=O)*; Bn = c1ccc(C*)cc1; NHNH2 = NN* Some results are limits rather than exact numbers.

In one assay the target is T1, Estrogen receptor (Homo sapiens, UniProt P03372).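 Further: potency for inhibiting coactivator peptide recruitment to the receptor.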
T1 sequence (P03372 whole entry): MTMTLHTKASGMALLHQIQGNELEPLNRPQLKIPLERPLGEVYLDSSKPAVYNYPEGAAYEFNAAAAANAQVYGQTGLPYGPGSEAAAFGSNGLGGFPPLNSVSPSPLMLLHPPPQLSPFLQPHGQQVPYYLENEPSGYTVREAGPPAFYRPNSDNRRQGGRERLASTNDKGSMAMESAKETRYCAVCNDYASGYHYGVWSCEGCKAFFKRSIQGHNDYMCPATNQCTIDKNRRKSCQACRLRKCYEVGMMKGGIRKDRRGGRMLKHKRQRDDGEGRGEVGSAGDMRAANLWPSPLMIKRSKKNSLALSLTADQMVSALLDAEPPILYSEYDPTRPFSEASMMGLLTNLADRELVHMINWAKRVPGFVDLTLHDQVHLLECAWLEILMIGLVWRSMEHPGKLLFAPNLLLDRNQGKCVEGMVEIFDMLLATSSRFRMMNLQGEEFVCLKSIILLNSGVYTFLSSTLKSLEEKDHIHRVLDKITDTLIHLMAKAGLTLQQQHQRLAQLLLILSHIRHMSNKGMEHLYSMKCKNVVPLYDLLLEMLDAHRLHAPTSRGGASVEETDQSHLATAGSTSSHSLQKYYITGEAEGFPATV

Assay [1] can be described thus: cytotoxicity in HPDE-C7 cells, cell-based, fluorescence, HTS (AID 430). As to conditions: Homo sapiens. The format is functional.
Assay [2] is described as follows: cytotoxicity in KRAS-transformed pancreatic duct cells, primary screen, cell-based, fluorescence, HTS (AID 431).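 Further: cell line used: HPDE-C7K.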 The format is functional. As to conditions: Homo sapiens.
In assay [3] the target is T2, Polyadenylate-binding protein 1 (Homo sapiens, UniProt P11940). The assay is described as follows: PABP1 MLLE–PAM2 interaction inhibitors, dose response, miRNA deadenylation inhibitor project, biochemical, fluorescence polarization, Cy5-PAM2 peptide, secondary (AID 602260). As to conditions: read-out: IC50_Mean. The format is functional.
The next assay has as its target Large T antigen (Simian virus 40, UniProt P03070). The format is functional, Betapolyomavirus macacae.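 Further: Confirmatory-stage PubChem screen for compounds that inhibit SV40 T antigen.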
Assay [4] has as its target T3, Voltage-gated N-type calcium channel alpha-1B subunit/Amyloid beta A4 precursor protein-binding family A member 1 (Homo sapiens, UniProt Q00975+Q02410). The format is protein assay.
Assay [5] addresses FAD-linked sulfhydryl oxidase ALR (Homo sapiens, UniProt P55789). The assay is described as follows: inhibitors of human ALR sulfhydryl oxidase, dose response, biochemical, H2O2 detection, luminescence, cherry-pick (AID 493248).
The target of assay [6] is T2, Polyadenylate-binding protein 1. Description: PABP1 MLLE–PAM2 binding inhibitor potency, dose response, biochemical, fluorescence polarization, FITC-PAM2 peptide (AID 602259). As to conditions: read-out: IC50_Mean. The format is functional.
Assay [7] deals with T3, Voltage-gated N-type calcium channel alpha-1B subunit/Amyloid beta A4 precursor protein-binding family A member 1. The format is protein assay. The source holds these as a separate data set.
The next assay has as its target T4, Aminopeptidase N (Plasmodium falciparum FcB1/Columbia, UniProt O96935).
T4 sequence (O96935 whole entry): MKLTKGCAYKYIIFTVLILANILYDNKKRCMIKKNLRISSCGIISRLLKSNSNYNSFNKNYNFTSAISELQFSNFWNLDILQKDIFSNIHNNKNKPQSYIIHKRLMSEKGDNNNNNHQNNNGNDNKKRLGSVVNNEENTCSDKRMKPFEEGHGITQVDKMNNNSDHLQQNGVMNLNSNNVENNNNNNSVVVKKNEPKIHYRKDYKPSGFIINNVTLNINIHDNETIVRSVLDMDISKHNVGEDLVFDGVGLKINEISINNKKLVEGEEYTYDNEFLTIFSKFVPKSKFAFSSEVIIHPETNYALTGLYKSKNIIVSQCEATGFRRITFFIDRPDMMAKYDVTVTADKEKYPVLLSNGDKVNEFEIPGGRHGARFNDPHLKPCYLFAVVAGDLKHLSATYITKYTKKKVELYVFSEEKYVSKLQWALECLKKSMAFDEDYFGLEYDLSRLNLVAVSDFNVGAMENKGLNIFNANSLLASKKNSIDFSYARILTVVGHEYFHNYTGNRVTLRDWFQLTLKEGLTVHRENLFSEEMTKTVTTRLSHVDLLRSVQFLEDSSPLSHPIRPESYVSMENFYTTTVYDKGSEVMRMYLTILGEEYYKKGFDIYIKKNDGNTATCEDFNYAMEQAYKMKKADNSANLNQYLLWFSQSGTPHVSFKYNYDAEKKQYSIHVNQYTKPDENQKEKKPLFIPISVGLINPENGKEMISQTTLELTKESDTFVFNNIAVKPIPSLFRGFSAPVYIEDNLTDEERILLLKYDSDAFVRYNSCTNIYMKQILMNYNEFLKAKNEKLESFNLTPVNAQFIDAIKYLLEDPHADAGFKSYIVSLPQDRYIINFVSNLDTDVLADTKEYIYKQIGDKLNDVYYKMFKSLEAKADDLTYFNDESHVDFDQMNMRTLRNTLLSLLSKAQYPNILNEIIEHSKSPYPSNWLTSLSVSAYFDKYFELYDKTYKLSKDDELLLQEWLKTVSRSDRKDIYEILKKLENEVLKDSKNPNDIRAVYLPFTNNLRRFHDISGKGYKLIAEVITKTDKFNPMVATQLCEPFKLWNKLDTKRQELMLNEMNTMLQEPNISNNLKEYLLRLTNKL
Description: P. falciparum M1AAP inhibitors, biochemical, fluorogenic H-Leu-NHMec substrate, 1536-well (AID 1445). Also noted: species or system Plasmodium falciparum 3D7, 3D7.

Assay [8] concerns the target Induced myeloid leukemia cell differentiation protein Mcl-1 (Homo sapiens, UniProt Q07820). The format is functional.
Assay [9] can be described thus: THP-1 cell cytotoxicity, dose response, cytotoxicity control for Vif-APOBEC3G degradation inhibitor project, THP-1 cells (AID 1117359). The assay is classed as functional. As to conditions: Human immunodeficiency virus 1, THP-1.
The target in assay [10] is T5, Replicative DNA helicase DnaB (Mycobacterium tuberculosis, UniProt P9WMR3).
T5 sequence (P9WMR3 whole entry): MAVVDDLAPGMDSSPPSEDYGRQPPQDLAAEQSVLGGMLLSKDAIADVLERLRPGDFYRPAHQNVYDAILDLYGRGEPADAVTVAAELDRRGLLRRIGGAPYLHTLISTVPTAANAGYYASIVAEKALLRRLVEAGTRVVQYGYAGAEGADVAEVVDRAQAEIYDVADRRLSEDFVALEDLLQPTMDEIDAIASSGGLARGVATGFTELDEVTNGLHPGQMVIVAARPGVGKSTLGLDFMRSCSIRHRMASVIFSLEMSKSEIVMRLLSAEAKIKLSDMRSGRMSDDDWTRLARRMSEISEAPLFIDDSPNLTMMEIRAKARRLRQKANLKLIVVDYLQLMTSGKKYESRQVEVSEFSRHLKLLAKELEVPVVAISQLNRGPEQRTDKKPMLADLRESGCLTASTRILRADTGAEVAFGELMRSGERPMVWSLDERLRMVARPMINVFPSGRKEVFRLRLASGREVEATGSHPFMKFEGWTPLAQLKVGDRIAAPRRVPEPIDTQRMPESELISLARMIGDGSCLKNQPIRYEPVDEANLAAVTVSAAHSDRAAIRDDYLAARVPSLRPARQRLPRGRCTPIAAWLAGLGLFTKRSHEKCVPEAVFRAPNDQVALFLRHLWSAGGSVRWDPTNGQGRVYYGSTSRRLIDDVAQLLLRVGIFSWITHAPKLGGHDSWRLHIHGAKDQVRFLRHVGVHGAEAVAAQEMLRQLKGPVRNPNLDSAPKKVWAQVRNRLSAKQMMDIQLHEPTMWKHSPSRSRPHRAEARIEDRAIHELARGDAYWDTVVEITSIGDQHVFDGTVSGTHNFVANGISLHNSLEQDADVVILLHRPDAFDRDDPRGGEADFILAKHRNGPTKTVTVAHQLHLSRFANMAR
The assay is described as follows: DnaB intein splicing inhibitors, dose response, biochemical, cell-free fluorescence (AID 449749). The format is functional.

The next assay has as its target T6, Protein RecA (Mycobacterium tuberculosis, UniProt P9WHJ3).
T6 sequence (P9WHJ3 whole entry): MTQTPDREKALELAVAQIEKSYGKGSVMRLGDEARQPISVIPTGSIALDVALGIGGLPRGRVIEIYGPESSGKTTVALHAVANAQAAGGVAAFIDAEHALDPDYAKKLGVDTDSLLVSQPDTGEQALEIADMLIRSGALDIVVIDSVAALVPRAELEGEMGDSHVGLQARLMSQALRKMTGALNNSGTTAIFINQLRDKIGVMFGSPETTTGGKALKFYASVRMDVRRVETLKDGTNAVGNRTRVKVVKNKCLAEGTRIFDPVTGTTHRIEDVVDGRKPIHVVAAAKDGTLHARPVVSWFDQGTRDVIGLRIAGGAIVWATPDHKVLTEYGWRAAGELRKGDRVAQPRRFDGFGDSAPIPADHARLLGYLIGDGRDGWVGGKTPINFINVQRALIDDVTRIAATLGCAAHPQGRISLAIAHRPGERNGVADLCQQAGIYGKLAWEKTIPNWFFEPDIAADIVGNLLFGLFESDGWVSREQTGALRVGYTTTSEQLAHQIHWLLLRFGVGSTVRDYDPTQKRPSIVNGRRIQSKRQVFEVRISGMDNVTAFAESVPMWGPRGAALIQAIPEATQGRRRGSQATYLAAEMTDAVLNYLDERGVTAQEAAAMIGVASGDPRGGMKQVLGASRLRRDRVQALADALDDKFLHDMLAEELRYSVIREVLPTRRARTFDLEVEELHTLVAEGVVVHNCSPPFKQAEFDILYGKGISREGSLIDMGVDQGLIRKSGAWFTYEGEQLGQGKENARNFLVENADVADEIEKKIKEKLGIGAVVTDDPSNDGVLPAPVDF
Description: Fluorescence Cell-Free Homogeneous Dose Retest to Identify Inhibitors of RecA-Intein Splicing Activity. [Related pubchem assays (depositor defined):AID2097, AID2223, AID489010, AID492950]. The format is functional.

Assay [11] can be described thus: NIH-3T3 fibroblast cytotoxicity, dose response, cytotoxicity control, cell-based, fluorescence, Alamar Blue, secondary assay (AID 2327).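 Further: NIH-3T3 mouse fibroblasts cultured with fluconazole at 8 µg/mL.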 The assay is classed as functional.
The nature of assay [12]: cytotoxicity in HEK-293T cells, dose response, cytotoxicity control for BCR NF-kB inhibitor project, luminescence, B-cell screen hits (AID 489021).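 Further: HEK-293T cells carrying an NF-kB luciferase reporter; cells exposed to compound for about 14 hours before viability readout.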 The assay is classed as functional, cell-based.

T3 sequence (Q00975 whole entry): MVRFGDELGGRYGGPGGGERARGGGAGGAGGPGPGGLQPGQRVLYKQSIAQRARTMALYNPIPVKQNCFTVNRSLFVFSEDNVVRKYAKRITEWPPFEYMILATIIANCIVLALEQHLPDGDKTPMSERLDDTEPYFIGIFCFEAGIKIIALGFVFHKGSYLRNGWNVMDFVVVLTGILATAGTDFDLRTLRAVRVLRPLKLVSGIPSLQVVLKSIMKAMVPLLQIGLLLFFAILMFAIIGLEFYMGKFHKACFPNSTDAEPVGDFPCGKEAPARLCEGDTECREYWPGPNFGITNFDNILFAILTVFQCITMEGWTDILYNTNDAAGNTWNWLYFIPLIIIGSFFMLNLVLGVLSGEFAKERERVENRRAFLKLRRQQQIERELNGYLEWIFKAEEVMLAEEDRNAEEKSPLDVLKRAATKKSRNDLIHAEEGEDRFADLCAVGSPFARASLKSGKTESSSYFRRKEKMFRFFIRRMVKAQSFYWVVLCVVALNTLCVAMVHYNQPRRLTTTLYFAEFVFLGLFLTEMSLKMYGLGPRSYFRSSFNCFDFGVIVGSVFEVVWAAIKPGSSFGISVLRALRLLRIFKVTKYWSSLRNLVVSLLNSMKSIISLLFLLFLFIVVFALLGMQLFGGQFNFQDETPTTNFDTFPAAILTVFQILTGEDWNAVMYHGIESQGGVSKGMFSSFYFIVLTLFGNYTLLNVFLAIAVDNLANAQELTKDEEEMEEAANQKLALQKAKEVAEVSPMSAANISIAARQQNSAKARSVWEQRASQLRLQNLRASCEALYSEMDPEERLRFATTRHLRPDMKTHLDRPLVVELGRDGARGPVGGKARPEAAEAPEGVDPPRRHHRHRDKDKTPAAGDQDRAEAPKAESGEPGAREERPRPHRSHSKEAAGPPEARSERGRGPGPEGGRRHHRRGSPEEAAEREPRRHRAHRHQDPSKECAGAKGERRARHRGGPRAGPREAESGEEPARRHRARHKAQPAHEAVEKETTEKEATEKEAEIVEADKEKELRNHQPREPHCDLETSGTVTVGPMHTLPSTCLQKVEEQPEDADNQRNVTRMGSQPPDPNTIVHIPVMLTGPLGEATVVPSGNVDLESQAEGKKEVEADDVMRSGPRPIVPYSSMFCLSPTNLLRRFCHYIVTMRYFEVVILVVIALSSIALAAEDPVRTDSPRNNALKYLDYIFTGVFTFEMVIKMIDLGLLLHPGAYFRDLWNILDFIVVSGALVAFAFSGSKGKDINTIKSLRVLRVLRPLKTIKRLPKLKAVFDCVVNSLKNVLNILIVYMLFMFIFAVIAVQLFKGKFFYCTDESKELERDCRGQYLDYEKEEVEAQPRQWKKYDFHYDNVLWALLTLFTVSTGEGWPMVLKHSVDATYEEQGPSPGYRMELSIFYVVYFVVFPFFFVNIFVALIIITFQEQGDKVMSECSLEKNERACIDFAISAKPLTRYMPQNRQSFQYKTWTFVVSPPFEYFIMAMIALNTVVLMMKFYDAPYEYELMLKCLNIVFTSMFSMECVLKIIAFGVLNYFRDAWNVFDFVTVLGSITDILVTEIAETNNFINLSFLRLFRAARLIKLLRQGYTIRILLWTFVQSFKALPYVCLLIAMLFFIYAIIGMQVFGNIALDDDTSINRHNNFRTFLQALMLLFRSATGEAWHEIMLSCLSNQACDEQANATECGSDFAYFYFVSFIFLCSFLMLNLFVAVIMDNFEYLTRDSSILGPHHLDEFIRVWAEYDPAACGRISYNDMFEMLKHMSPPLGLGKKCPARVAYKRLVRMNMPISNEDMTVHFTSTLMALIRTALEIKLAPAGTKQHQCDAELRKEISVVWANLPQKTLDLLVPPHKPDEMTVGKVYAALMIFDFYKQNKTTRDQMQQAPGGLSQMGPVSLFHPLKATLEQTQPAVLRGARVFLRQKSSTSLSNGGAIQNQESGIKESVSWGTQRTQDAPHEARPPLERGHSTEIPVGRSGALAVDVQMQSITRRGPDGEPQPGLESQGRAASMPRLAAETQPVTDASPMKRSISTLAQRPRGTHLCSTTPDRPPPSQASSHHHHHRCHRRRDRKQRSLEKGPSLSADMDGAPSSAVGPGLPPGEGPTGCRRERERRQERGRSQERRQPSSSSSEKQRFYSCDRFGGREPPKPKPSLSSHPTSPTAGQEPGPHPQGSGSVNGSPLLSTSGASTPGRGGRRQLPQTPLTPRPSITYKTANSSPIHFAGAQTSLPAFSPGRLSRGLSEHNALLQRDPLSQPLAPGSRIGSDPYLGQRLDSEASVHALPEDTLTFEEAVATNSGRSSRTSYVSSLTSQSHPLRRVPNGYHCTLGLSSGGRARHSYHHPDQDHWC
T3 sequence (Q02410 whole entry): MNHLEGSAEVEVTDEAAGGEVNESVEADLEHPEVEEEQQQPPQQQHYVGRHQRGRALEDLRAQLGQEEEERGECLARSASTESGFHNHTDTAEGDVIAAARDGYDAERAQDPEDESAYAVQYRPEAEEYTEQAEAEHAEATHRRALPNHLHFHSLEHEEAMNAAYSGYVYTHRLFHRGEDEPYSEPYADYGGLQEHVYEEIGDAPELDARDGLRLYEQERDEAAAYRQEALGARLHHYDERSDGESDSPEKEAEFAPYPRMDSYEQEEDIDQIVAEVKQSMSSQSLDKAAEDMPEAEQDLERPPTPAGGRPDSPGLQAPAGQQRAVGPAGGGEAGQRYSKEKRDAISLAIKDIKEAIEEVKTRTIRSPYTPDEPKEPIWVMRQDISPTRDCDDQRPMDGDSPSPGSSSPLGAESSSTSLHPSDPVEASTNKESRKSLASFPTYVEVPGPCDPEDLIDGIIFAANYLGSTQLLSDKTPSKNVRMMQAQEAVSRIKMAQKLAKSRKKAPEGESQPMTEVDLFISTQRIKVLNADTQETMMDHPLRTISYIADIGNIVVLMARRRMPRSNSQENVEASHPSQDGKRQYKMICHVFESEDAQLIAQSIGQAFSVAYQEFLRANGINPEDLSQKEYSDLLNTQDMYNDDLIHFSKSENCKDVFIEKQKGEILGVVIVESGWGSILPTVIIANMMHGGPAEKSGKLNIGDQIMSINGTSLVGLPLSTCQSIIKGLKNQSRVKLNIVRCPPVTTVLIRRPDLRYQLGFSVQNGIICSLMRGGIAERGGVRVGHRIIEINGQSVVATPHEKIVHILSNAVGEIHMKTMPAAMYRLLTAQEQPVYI
T2 sequence (P11940 whole entry): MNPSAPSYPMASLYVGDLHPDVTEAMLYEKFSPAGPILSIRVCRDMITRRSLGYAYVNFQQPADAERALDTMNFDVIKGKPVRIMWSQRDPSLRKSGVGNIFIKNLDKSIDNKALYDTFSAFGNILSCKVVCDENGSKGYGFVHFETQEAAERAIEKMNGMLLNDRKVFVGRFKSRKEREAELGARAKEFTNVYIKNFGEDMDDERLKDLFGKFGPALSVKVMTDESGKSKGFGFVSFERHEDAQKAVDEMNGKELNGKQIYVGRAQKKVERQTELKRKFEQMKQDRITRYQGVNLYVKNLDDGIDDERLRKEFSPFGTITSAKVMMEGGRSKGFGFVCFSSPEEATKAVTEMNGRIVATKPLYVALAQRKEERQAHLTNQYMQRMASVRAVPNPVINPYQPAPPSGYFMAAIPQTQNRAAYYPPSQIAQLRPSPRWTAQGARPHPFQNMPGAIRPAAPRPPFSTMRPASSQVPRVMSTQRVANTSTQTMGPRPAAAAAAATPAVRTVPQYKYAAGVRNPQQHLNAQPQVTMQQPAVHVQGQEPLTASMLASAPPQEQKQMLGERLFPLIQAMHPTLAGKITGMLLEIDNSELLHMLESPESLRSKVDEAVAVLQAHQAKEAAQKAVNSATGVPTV
Sequence of FAD-linked sulfhydryl oxidase ALR (P55789 whole entry): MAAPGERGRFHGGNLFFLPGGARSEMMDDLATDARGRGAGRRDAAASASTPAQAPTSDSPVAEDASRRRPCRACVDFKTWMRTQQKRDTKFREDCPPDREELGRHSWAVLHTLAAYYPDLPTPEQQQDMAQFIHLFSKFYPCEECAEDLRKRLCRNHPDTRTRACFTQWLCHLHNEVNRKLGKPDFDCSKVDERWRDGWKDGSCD
Sequence of Induced myeloid leukemia cell differentiation protein Mcl-1 (Q07820 whole entry): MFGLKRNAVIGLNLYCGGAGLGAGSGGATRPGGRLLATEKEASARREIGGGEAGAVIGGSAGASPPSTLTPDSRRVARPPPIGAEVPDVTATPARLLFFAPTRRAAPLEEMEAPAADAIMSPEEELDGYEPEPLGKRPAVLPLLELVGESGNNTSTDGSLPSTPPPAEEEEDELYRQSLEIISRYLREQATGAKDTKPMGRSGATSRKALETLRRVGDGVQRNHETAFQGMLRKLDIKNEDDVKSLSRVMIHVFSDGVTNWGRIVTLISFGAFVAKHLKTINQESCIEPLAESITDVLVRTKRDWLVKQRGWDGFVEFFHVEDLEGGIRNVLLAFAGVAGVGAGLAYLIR
Sequence of Large T antigen (P03070 whole entry): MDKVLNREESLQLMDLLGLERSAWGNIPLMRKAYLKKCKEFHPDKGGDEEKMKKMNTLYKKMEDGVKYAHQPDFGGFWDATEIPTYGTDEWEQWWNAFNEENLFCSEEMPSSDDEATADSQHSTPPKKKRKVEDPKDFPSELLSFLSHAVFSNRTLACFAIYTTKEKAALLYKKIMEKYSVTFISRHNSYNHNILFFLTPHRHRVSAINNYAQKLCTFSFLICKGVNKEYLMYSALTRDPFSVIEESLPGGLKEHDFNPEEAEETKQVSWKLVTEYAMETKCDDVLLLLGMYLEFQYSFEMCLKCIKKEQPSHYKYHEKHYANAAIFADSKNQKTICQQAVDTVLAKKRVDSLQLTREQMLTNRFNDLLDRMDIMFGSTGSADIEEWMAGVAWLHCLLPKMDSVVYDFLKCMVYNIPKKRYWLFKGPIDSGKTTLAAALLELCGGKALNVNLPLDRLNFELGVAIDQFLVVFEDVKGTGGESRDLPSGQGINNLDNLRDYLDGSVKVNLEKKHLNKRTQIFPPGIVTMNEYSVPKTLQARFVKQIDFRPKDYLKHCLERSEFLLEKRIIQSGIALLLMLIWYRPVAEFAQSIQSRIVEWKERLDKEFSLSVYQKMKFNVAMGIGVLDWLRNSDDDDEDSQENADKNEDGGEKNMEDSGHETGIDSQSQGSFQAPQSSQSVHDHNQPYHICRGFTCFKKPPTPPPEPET

In the case of `CCOC(=O)CSc1nn(C)c(=S)s1`, the IC50 at Estrogen receptor is 7.98 µM (active).

For `COc1ccc(C2NC3=C(CCCC3)C(C#N)(C#N)C2(C#N)C#N)cc1` (configuration not stated), the EC50 in assay [1] and in [2] was > 20 µM (not active) throughout.

Take `CCOc1ccc(Nc2oc(-c3ccccc3Cl)nc2C#N)cc1`: on Estrogen receptor, the IC50 was 9.54 µM (active).

`N#CC1=C(N)N=C(S)C(C(N)=O)C1c1ccccc1F` (configuration not stated): the IC50 in [3] is > 66 µM (inactive); on Large T antigen it was 60 µM (active); in assay [4], > 50 µM (inactive); in [6] it was > 66 µM (inactive); in assay [7] it was 13.6 µM (active). Moreover, the AC50 in [5] was 8.62 µM (active).

As to `COc1ccc(/C=C(\CC(=O)O)c2nc3ccccc3o2)cc1`, the IC50 on Aminopeptidase N was 81.5 µM (active).

On to `CCCSc1nc(C)c(-c2csc(C(C#N)=C3CCCC3)n2)cc1C#N`, for which, on Estrogen receptor, the IC50 is 9.34 µM (active).

As to `N#CC1=C2SCC(O)(c3ccccc3)N2C(=O)CC1c1cccs1` (configuration not stated), the results for the EC50 in [1] and in [2] were 1.44 µM (active) and 1.53 µM (active), respectively.

In the case of `COc1ccc(/C=N/NC(=O)c2cccc(NC(=O)c3ccccc3Cl)c2)cc1OC`, at Aminopeptidase N, the IC50 is 53.9 µM (active).

Consider `O=[N+]([O-])c1ccc(-c2cc(-c3ccc(Cl)cc3)n[nH]2)cc1`, for which the IC50 in assay [4] was > 50 µM (inactive); in [8], 2.5 µM (active); in assay [7], > 56.8 µM (not active).

With `Cc1ccc2nc(O)c(C3=NN(C(=O)CCC(=O)O)C(c4cccs4)C3)c(-c3ccccc3)c2c1` (configuration not stated), the IC50 at Aminopeptidase N is 68.9 µM (active).

`c1ccc2c(c1)NCC1CCCN21` (configuration not stated): in assay [9], the CC50 is > 40 µM (active).

Turning to `N#Cc1c(C#N)c(O)c2ccccc2c1O`, the AC50 in [10] is > 380 µM (inactive). In addition, the IC50 in assay [4] is 25.8 µM (active); in assay [7], 3.83 µM (active). Moreover, on Protein RecA, the EC50 was 1.55 µM (active).

Take `CCOc1cccc(CN2CCCC(C(=O)Nc3cccc(-n4cccn4)c3)C2)c1` (configuration not stated): the CC50 in assay [9] was > 40 µM (active).

`COc1ccc(C(=O)C2CCCN(C(=O)c3cnsn3)C2)c(C)c1` (configuration not stated): the 50% cytotoxic concentration (CC50) in assay [9] was > 40 µM (active).

Consider `COc1ccc(C(=O)Oc2c(CN3CCOCC3)cc(Cl)c3cccnc23)cc1`, for which the EC50 was 5.17 µM (active) in [1], > 160 µM (inactive) in assay [11] and 13.4 µM (active) in [2]. In addition, the CC50 in assay [9] is 5.39 µM (active).

As for `COc1ccc(/C=C2/SC(=S)N(CCC(=O)O)C2=O)cc1`, in assay [12], the IC50 was > 80 µM (inactive).

Take `CC(C)CC(NC(=O)C(COCc1ccccc1)NC(=O)OC(C)(C)C)C(=O)NN` (configuration not stated) (Boc-Ser(Bn)-Leu-NHNH2; configuration not given here): on Aminopeptidase N, the IC50 is 81.4 µM (active).
